The record followed here is patent US8852647B2, “Combinations of pyrimethanil and silver compounds” (Janssen Pharmaceutica, NV, priority 2007, dated 2014).

One assay deals with Escherichia coli. The assay is described as follows: Poison Plate Assay (Experiment 1), Escherichia coli. The settings on record: for MIC-values (minimum inhibitory concentration): ppm total active ingredient, Tryptose Agar, 27° C., evaluation after one week.
For assay [1], the system named is Streptomyces griseus (g+). The assay is described as follows: Poison Plate Assay (Experiment 2), Streptomyces griseus. Particulars: 120 h, Table 3, pyrimethanil with Microsil™, ppm total active ingredient, Tryptose Agar, 27° C., evaluation after 5 days, read-out: MIC-values (minimum inhibitory concentration). The format is cell-based. An excerpt:
[formula] wherein: • QA is the concentration of compound A in ppm, acting alone, which produced an end point (e.g. MIC), • Qa is the concentration of compound A in ppm, in the mixture, which produced an end point (e.g. MIC), • QB is the concentration of compound B in ppm, acting alone, which produced an end point (e.g. MIC), • Qb is the concentration of compound B in ppm, in the mixture, which produced an end point (e.g. MIC). When the Synergy Index is greater than 1.0, antagonism is indicated. When the SI is equal to 1.0, additivity is indicated.
Experiment 2: Poison Plate Assay • Name of the primary compound: —pyrimethanil (I) • Name of the silver salt: —Microsil™ from Avecom (Bloemendalestraat 138, 8730 Beernem, Belgium) • Microsil™ is a suspension of colloidal silver metal particles, produced by and clustered on probiotic bacteria. The diameter of the silver particles varies between 3 to 20 nm. The oxidation state of the silver in Microsil™ is 0 (Ag^0). • Microsil™ is produced as a suspension of finely dispersed colloidal Ag^0 particles, stabilized on a biological carrier molecule, in water. The probiotic carrier exists only as a non-viable and stabilizing biocomponent. • Stock solution: 1000 ppm in DMSO • Test combinations: […]

For the next assay, the system named is Aspergillus versicolor. The assay is described as follows: Poison Plate Assay (Experiment 1), Aspergillus versicolor. The settings on record: ppm total active ingredient, Glucose Agar, 22° C., evaluation after two weeks; for MIC: Aspergillus versicolor, 336 h.
For a further assay, the system named is Rhodoturula rubra. Description: Poison Plate Assay (Experiment 1), Rhodoturula rubra. Particulars: for MIC-values (minimum inhibitory concentration): ppm total active ingredient, Glucose Agar, 22° C., evaluation after two weeks.
[2] abbreviates: Table 2, pyrimethanil with silver perchlorate.
Setting [3] is: Table 1, pyrimethanil with silver nitrate.

In brackets after ≈: the same amount, converted by molar mass. Like-named read-outs stand apart in the source and are kept apart here.

For `Cc1cc(C)nc(Nc2ccccc2)n1` [pyrimethanil, 4,6-dimethyl-N-phenyl-2-pyrimidinamine], the MIC with Escherichia coli (Escherichia coli, 168 h, read-out: MIC-values (minimum inhibitory concentration)) came out at 667 µg/mL (≈ 3350 µM); in assay [1] it was 66.7 µg/mL; in the assay with Aspergillus versicolor (read-out: MIC-values (minimum inhibitory concentration), Table 1, pyrimethanil with silver nitrate), 667 µg/mL (≈ 3350 µM); with Aspergillus versicolor (read-out: MIC-values (minimum inhibitory concentration), Table 2, pyrimethanil with silver perchlorate), 375 µg/mL (≈ 1880 µM); in the assay with Rhodoturula rubra (336 h, read-out: MIC-values (minimum inhibitory concentration)) it was 281 µg/mL (≈ 1410 µM). The “MIC-values (minimum inhibitory concentration)” value worked out at 666.67 ppm with Escherichia coli (setting [2]) and 281.25 ppm with Rhodoturula rubra (setting [2]).
With `O=[N+]([O-])[O-].[Ag+]` [silver nitrate], the “MIC-values (minimum inhibitory concentration)” value against Escherichia coli (setting [3]) was 66.67 ppm; against Aspergillus versicolor (setting [3]), 118.65 ppm; in the assay on Rhodoturula rubra (setting [3]), 118.65 ppm.
